We go through 32 molecules from ChEMBL document CHEMBL3862035, “In Silico Discovery and Validation of Amide Based Small Molecule Targeting the Enzymatic Site of Shiga Toxin” (J Med Chem, 2016).

Series [1] can be described thus: Cytotoxicity against African green monkey Vero cells incubated for 24 hrs by neutral red uptake assay. It counts as toxicity, cell-based. Conditions: chlorocebus sabaeus; for MNTC at 24 h: read-out: MTD.
A short description of series [2]: Inhibition of Shigella dysenteriae type 2 Shiga toxin in African green monkey Vero cells assessed as inhibition of Stx-induced cytotoxicity incubated for 10 hrs by MTS/PMS assay. Type of series: cell-based.
Series [3] concerns Mus musculus. As to the kind of experiment: Inhibition of Shigella dysenteriae Shiga toxin-induced mortality in Balb/c mouse exposed to 5 x LD50 Shigella toxin assessed as increase in mouse survival at 2 mM, ip dosed 1 after toxin injection measured after 24 to 48 hrs. It counts as functional, organism-based.
The subject of series [4] is Mus musculus. As to the kind of experiment: Inhibition of Shigella dysenteriae Shiga toxin-induced mortality in Balb/c mouse exposed to 5 x LD50 Shigella toxin assessed as increase in mouse survival at 2 mM, ip preincubated with Stx for 1 hr measured after 0 to 14 days. It counts as functional, organism-based.
The subject of series [5] is Mus musculus. As to the kind of experiment: Toxicity in Balb/c mouse at 2 mM, ip measured after 0 to 14 days. Type of series: organism-based. To be noted: in vivo, 2000 µM.
The subject of series [6] is Mus musculus. As to the kind of experiment: Inhibition of Shigella dysenteriae Shiga toxin-induced mortality in Balb/c mouse exposed to 5 x LD50 Shigella toxin assessed as increase in mouse survival at 2 mM, ip dosed 1 hr before toxin injection measured after 24 to 48 hrs. It counts as functional, organism-based.
In series [7] the test system is Mus musculus. The experiment in a line: Inhibition of Shigella dysenteriae Shiga toxin-induced mortality in Balb/c mouse exposed to 5 x LD50 Shigella toxin assessed as reduction in symptomatic effects of toxin at 2 mM, ip preincubated with Stx for 1 hr measured after 0 to 14 days. Type of series: functional, organism-based.
The target of series [8] is T1, Shiga toxin subunit A (Shigella dysenteriae) (UniProt Q9FBI2).
T1 sequence (whole entry): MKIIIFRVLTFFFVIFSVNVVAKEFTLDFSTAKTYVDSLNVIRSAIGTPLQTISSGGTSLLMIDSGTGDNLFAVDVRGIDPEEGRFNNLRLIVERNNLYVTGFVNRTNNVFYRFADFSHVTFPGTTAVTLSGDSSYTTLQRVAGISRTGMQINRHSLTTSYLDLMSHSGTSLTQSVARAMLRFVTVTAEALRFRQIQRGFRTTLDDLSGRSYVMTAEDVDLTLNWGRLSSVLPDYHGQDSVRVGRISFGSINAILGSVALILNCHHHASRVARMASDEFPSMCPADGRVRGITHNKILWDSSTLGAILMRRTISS

The structures appear in SMILES notation. pIC50: −log10 of the molar value. Calls of active or inactive are those of the source. The rule behind the calls is not given here.

Turning to `COc1ccc(/C=C/C(=O)c2ccccc2O)cc1`, the MNTC at 24 h in series [1] was determined as 7.35 µM.

As to `Cc1ccsc1-c1cc(=O)c2ccccc2[nH]1`, in series [1], the MNTC at 24 h was 5.33 µM.

Regarding `Nc1ncnc2nn[nH]c12`, in series [1], the MNTC at 24 h is 18.7 µM.

`Oc1cc(/C=C/c2ccccc2)nc2ccccc12`: the MNTC at 24 h in series [1] amounted to 9.33 µM.

Turning to `c1ccc(SCCNCCN2CCCC2)cc1`, the pIC50 in series [2] was 4.60. Further, the MNTC at 24 h in series [1] stood at 63.3 µM.

Consider `Nc1ncc2[nH]cnc2n1` [2-AMINOPURINE], for which, in series [1], the MNTC at 24 h amounted to 125 µM.

Turning to `CCCCSCCNCCNP(=S)(OCC)OCC`, the pIC50 in series [2] was 4.60. The MNTC at 24 h in series [1] is 32.3 µM.

With `O=c1cc(-c2ccccc2F)[nH]c2ccccc12`, the MNTC at 24 h in series [1] amounted to 5 µM.

For the molecule `CC(=O)c1ccccc1NC(=O)c1ccccc1F`, the inhibition result in the series with Mus musculus [3], in the series on Mus musculus [4], in the series on Mus musculus [6] and in the series on Mus musculus [7] was “Active” throughout. In addition, the Activity result with Mus musculus [5] is recorded as “Non-Toxic”. Also, the midpoint of cytotoxicity in series [1], the CC50 at 24 h, lay at 120 µM. For the same molecule, the MNTC at 24 h in series [1] amounted to 37 µM.

For `Cc1ncnc2nc[nH]c12`, the MNTC at 24 h in series [1] came out at 9.3 µM.

In the case of `CC(=O)c1ccccc1NC(=O)/C=C\c1ccccc1`, the inhibition entry in the series with Mus musculus [3], with Mus musculus [4], in the series with Mus musculus [6] and in the series with Mus musculus [7] was “Active” throughout. Also, the Activity entry in the series with Mus musculus [5] was “Non-Toxic”. For the same molecule, the CC50 at 24 h in series [1] turned out to be 29.7 µM. Also, the MNTC at 24 h in series [1] came out at 6.96 µM.

As for `S=C1N=CN=C2NC=NC12` (centres undefined), in series [1], the MNTC at 24 h is 18.7 µM.

Consider `CCCSCCNCCNC(=O)c1ccc(Cl)cc1`, for which, in series [1], the MNTC at 24 h came to 124 µM.

Regarding `Oc1ncnc2[nH]ncc12` [ALLOPURINOL], in series [8], the ΔTm came to 3.75 °C. In the series with Mus musculus [5], the Activity entry is “Non-Toxic”. Moreover, in series [1], the CC50 at 24 h was found to be 428 µM and the MNTC at 24 h worked out at 250 µM.

Turning to `O=C1NCN=C2NC=NC12` (centres undefined), in series [8], the ΔTm came to 2.32 °C. Moreover, the MNTC at 24 h in series [1] stood at 125 µM.

Consider `O=C(/C=C/c1cccs1)c1ccccc1O`, for which the MNTC at 24 h in series [1] was determined as 17 µM.

Take `O=C(/C=C/c1ccccc1)Oc1c(-c2ccccc2)oc2ccccc2c1=O`: in series [1], the MNTC at 24 h worked out at 64 µM.

In the case of `Nc1ccncn1`, the MNTC at 24 h in series [1] turned out to be 250 µM.

As for `Nc1nc2[nH]cnc2c(=O)[nH]1`, in series [8], the thermal shift (ΔTm) came out at 4.45 °C.

As to `O=C(/C=C\c1ccccc1)NCCO`, the MNTC at 24 h in series [1] amounted to 31.6 µM.

Regarding `O=C(/C=C/c1ccccc1)Nc1ccccc1O` [N-(2-HYDROXYPHENYL)CINNAMAMIDE], the MNTC at 24 h in series [1] was 32 µM.

Turning to `CC(=O)c1ccccc1NC(=O)c1ccc(F)cc1`, the MNTC at 24 h in series [1] came out at 10 µM.

Consider `CCCSCCNCCNC(=O)/C=C/c1ccccc1`, for which the inhibition entry in the series with Mus musculus [3], in the series on Mus musculus [4], in the series with Mus musculus [6] and in the series on Mus musculus [7] was “Active” each time. The Activity entry in the series on Mus musculus [5] is “Non-Toxic”. In series [1], this molecule had a CC50 at 24 h of 123 µM. For the same molecule, the MNTC at 24 h in series [1] came to 38 µM.

In the case of `CC(=O)c1ccccc1NC(=O)c1ccc([N+](=O)[O-])cc1`, the MNTC at 24 h in series [1] was determined as 17.3 µM.

For `O=C(NCCNCCSc1ccccc1)C1CCCCC1`, the MNTC at 24 h in series [1] is 38 µM.

For `O=C(NCCNCCSc1ccccc1)c1ccc([N+](=O)[O-])cc1`, the inhibition entry in the series on Mus musculus [3], in the series on Mus musculus [4], with Mus musculus [6] and in the series with Mus musculus [7] was “Active” each time. Besides, the Activity result in the series on Mus musculus [5] is given as “Non-Toxic”. This molecule also came in with a CC50 at 24 h in series [1] of 177 µM. Also, the MNTC at 24 h in series [1] came out at 15 µM.

Turning to `Nc1nc(N)c2[nH]cnc2n1` [2,6-DIAMINOPURINE], the MNTC at 24 h in series [1] came out at 9.3 µM.

In the case of `O=C(/C=C/c1ccccc1F)c1ccccc1O`, the MNTC at 24 h in series [1] was determined as 5.67 µM.

As to `O=C1NC(=O)C2N=CNC2N1` (centres undefined), the MNTC at 24 h in series [1] is 9.3 µM.

For `Nc1ncnc2c1ncn2[C@@H]1O[C@H](CO)[C@@H](O)[C@H]1O` [ADENOSINE], the MNTC at 24 h in series [1] was 125 µM.

As to `Nc1nc2nc[nH]c2c(=O)[nH]1` [GUANINE], in the series with Mus musculus [5], the Activity result is recorded as “Non-Toxic”. Moreover, in series [1], the CC50 at 24 h was found to be 136 µM and the MNTC at 24 h was found to be 125 µM.

In the case of `Nc1ncnc2c1ncn2[C@@H]1O[C@H](COP(=O)(O)O)[C@@H](O)[C@H]1O` [ADENOSINE PHOSPHATE], the MNTC at 24 h in series [1] was found to be 75 µM.
